Reference: US20240342316A1, “A PHARMACEUTICAL COMPOSITION FOR IMAGING” (ASTELLAS PHARMA INC., priority 2021, published 2024)

What was measured:
[1] = Phase 1 single ascending IV bolus dose study: plasma and urine pharmacokinetics; conditions: for t1/2, apparent terminal plasma elimination half-life: healthy participants, n = 4, arithmetic mean
Source text: The study (ClinicalTrials.gov Identifier: NCT03698305) was a randomized, double-blind, placebo-controlled, sequential ascending IV bolus dose group study conducted at a single center (Covance Clinical Research Unit, Inc.) in the United States.
The study population, 30 participants in all, was comprised of 5 cohorts consisting of 6 healthy volunteers (3 females and 3 males) per cohort. […] The study consisted of a screening period, an investigational period, and a follow-up period (FIG. 1). Following successful screening, participants were admitted to the clinic on study day −1.
After at least 5 of 6 patients in a cohort had completed the study procedure, a Dose-Escalation Committee reviewed all PK and safety data, and decided whether to proceed with dose escalation, stop dose escalation, repeat a dose level, or investigate a lower dose level intermediate between the current and prior doses.
Blood and urine samples were collected over a 24-hour period. Participants were discharged on day 2, returned to the clinic for a follow-up visit on day 7, and the study was completed with a follow-up phone call on day 14. To prevent accidental unblinding should the urine be discolored, catheter and tubing collection bags were covered, and participants were prevented from observing these or the collection vials when changed.
Urine interval sampling was between −1 hour and time of dosing, and between each subsequent consecutive urine sample collection time point.
The safety population comprised all participants who received a single dose of study drug. The PK population comprised safety population participants for which data were available for derivation of ≥1 PK parameter. Pharmacokinetic parameters were calculated by noncompartmental analysis using Phoenix WinNonlin version 8.1 and were summarized by treatment group.

[2] = NIR versus white light; cited from earlier work

## COC1=C(/C=C/C2=[N+](CCC(=O)NCCCO[C@H]3[C@H]4O[C@H]5[C@H](O)[C@@H](O)[C@@H](O[C@H]6[C@H](O)[C@@H](O)[C@@H](O[C@H]7[C@H](O)[C@@H](O)[C@@H](O[C@H]8[C@H](O)[C@@H](O)[C@@H](O[C@H]9[C@H](O)[C@@H](O)[C@@H](O[C@H]%10[C@H](O)[C@@H](O)[C@@H](O[C@@H]([C@@H]3O)[C@@H](CO)O4)O[C@@H]%10CO)O[C@@H]9CO)O[C@@H]8CO)O[C@@H]7CO)O[C@@H]6CO)O[C@@H]5CO)c3ccc4ccccc4c3C2(C)C)CCC/C1=C\C=C1\N(CCC(=O)NCCCO[C@H]2[C@H]3O[C@H]4[C@H](O)[C@@H](O)[C@@H](O[C@H]5[C@H](O)[C@@H](O)[C@@H](O[C@H]6[C@H](O)[C@@H](O)[C@@H](O[C@H]7[C@H](O)[C@@H](O)[C@@H](O[C@H]8[C@H](O)[C@@H](O)[C@@H](O[C@H]9[C@H](O)[C@@H](O)[C@@H](O[C@@H]([C@@H]2O)[C@@H](CO)O3)O[C@@H]9CO)O[C@@H]8CO)O[C@@H]7CO)O[C@@H]6CO)O[C@@H]5CO)O[C@@H]4CO)c2ccc3ccccc3c2C1(C)C [Pudexacianinium]
[1]; 0.1 mg to 24 mg single IV bolus
  Mean terminal half-life, range across doses: 2.1 to 3.6 h
[1]; single IV bolus 0.1 mg
  t1/2, apparent terminal plasma elimination half-life: 2.24 h
[1]; single IV bolus 0.5 mg
  t1/2, apparent terminal plasma elimination half-life: 2.23 h
[1]; single IV bolus 2 mg
  t1/2, apparent terminal plasma elimination half-life: 2.10 h
[1]; single IV bolus 8 mg
  t1/2, apparent terminal plasma elimination half-life: 3.58 h
[1]; single IV bolus 24 mg
  t1/2, apparent terminal plasma elimination half-life: 3.41 h

## CN(C)c1ccc2nc3ccc(=[N+](C)C)cc-3sc2c1 [methylene blue]
[2]
  NIRF ureter visualization in first-in-human study: did not provide sufficient optical properties to offer any visualization advantage with NIR over white light
